Patent publication US7550469B2, “Heterocyclic amide derivatives and their use as dopamine D3 receptor ligands” (Aventis Pharmaceuticals Inc., priority 2001, dated 2009)
Read-outs that look alike come from different tables or passages of the source. Each block holds one compound with its values, some of them ahead of it.

Molecular target: T1, cloned human dopamine D3 receptors (Homo sapiens, UniProt P35462)
T1 construct: expressed in transfected cells; membrane homogenate
Assay: [N-Methyl-3H]Spiroperidol binding to cloned human dopamine D3 receptors (Protocol 1)
Text: [N-Methyl-^3H]Spiroperidol Binding to Cloned Human Dopamine D3 Receptors
This assay measures the in vitro activity of compounds on cloned human dopamine (D3) receptors and predicts the direct dopamine-blocking properties of putative neuropsychiatric agents at human dopamine D3 receptors.
The D3 gene was isolated from a human striatal cDNA library (Stratagene). The gene was sequenced and sub-cloned into the expression vector RC/RSV (Invitrogen). CHO (Chinese Hamster Ovary) cells were stably transfected with 10 μg of the D3/RSV plasmid using the DOTAP method from Boehringer Mannheim and 72 clones that were G418 resistant were isolated. Using mRNA and binding displacement data a single high expressing clone was identified. This clone was then grown in large batches for the purpose of developing a 96 well format assay.
• 1. One plate (10 cm) with approximately 2-3 million D3 cells per plate is incubated with 1 ml of Trypsin-EDTA at room temperature for ˜2 min or until cells have lifted off plates. Four ml of Ham's F12+10% Fetal Bovine Serum+1% Penicillin/Streptomycin+G418 (400 μg/ml) medium are added to resuspend cells and 1 ml of this is added to each large plate (15 cm) containing 19 ml of the-same medium as mentioned above. • 2. The 5 large plates are incubated at 37° C.+5% CO2 for ˜3 days or until the cells are confluent. • 3. After these plates are confluent, they are split into 10 large plates. Medium is aspirated off, 2 ml of Trypsin-EDTA are added to each plate and plates are incubated at RT for 2 min or until cells have lifted off the plate. Eight ml of the F12 medium (same medium as #1 above) are added to each plate (10 ml total) to resuspend the cells and 5 ml are transferred to the 2 new plates containing 15 ml of the F12 media. • 4. The 10 large plates are incubated at 37° C.+5% CO2 for ˜2 days or until the cells are confluent. • 5. The 10 large plates are split into 60 large plates (using Trypsin-EDTA as #3 except 4 ml of F12 medium are added to resuspend cells and 1 ml is aliquoted to 6 new plates containing 19 ml of F12 medium each). • 6. Plates are incubated at […]+5% CO2 for ˜3 days or until cell are confluent. • 7. The 60 large plates are then split into 60 roller bottles (100-150 million cells/bottle). Medium is aspirated off, 2 ml of Trypsin-EDTA are added to each plate and incubated at RT for ˜2 minutes or until cells have lifted off plates. Eight ml of F12 medium are added to each plate to resuspend cells and the entire 10 ml are added to 1 roller bottle containing 90 ml of the F12 medium. • 8. The 60 roller bottles are immediately placed on their sides and transferred to the roller bottle incubator. They are incubated at 37° C.+5% CO2 for ˜3-5 days. Cells are spun at 30-40% motor speed in the Forma incubator. • 9. Medium is poured off and cells are washed 2× in PBS. • 10. Cells are then scraped off in 20 ml of PBS and the bottles are rinsed again with 5 ml of PBS to remove any remaining cells. Cells are stored on ice before membrane preparation. • 11. The yield for 60 D3 roller bottles has varied from ˜260-500 mg. • Note: All tissue culture reagents are from Gibco-BRL. C. Membrane Preparation
The cells are harvested into 250 ml centrifuge tubes with 100 volumes of cold phosphate buffered saline (PBS) and spun down (1200×G for 10 min at 4° C.). The medium is removed and 100 ml PBS are added to each centrifuge tube, cells are resuspend and spun down again. The PBS is removed and the final pellet is homogenized in an appropriate volume of 10% DMSO with a polytron on ice at a medium setting.
1. 0.5M Tris Buffer, pH 7.7 • a) 44.4 g Tris HCl 26.5 g Tris Base q.s. to 1 Liter (0.5 M Tris buffer, pH 7.7 at 37° C.) • b) make a 1:10 dilution in distilled H2O (0.05 M. Tris buffer, pH 7.7) 2. Tris Buffer Containing Physiological Salts • a) Stock buffer • NaCl 7.014 g • KCl 0.372 g • CaCl2 0.222 g • MgCl2 0.204 g • q.s. To 100 ml with 0.5 M. Tris Buffer • b) Dilute 1:10 in distilled H2O […]

[1] = the 23rd table, read-out: D3 Ki
[2] = the 17th table, read-out: D3 Ki
[3] = the 24th table, read-out: D3 Ki
[4] = the 18th table, read-out: D3 Ki

T1 sequence (P35462 whole entry): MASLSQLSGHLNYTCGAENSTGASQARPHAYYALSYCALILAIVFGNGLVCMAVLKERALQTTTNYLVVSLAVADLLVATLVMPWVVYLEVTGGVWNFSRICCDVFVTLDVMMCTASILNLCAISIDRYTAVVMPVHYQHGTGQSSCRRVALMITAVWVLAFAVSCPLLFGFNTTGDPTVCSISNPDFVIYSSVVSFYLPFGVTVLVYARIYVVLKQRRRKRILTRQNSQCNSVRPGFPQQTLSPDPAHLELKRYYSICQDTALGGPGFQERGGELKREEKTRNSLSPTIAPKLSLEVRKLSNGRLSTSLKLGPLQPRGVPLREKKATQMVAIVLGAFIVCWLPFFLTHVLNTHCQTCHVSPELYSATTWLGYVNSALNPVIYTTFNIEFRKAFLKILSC

SMILES: CC1(C)C(CNC(=O)C2CC2c2ccccc2)C1CN1CCN(c2csc3cc(C(F)(F)F)ccc23)CC1 (mixture of isomers) [compound 826283]
Ki (read-out: D3K1): 6.8 nM

SMILES: CC1CCCCN1CCCNC[C@@H]1C[C@H]1CN1CCN(c2csc3cc(C(F)(F)F)ccc23)CC1 (mixture of isomers) [compound 832277]
Ki [1]: 29.4 nM

SMILES: c1cc2onc(C3CCN(CC4CC4CN4CCC(c5noc6ccsc56)CC4)CC3)c2s1 (racemic) [831205DA]
Ki [1]: 6.38 nM

SMILES: c1ccc(OCCNCC2CC2CN2CCC(c3noc4ccsc34)CC2)cc1 (racemic) [832296FH]
Ki [1]: 126 nM

SMILES: O=C(c1ccc(F)cc1)N(Cc1ccccc1)CC1CC1CN1CCCN(c2csc3cc(F)ccc23)CC1 (racemic) [compound 830393]
Ki [2]: 21.8 nM

SMILES: CCCCc1ccc(C(=O)N(Cc2ccccc2)CC2CC2CN2CCCN(c3csc4cc(F)ccc34)CC2)cc1 (racemic) [compound 830395]
Ki [2]: 27.6 nM

SMILES: COc1cc(OC)cc(C(=O)N(Cc2ccccc2)CC2CC2CN2CCCN(c3csc4cc(F)ccc34)CC2)c1 (racemic) [compound 830396]
Ki [2]: 16.5 nM

SMILES: O=C(c1ccc(-c2ccccc2)cc1)N(Cc1ccccc1)CC1CC1CN1CCCN(c2csc3cc(F)ccc23)CC1 (racemic) [compound 830397]
Ki [2]: 55.4 nM

SMILES: Cc1ccc(C(=O)NCC2CC2CN2CCCN(c3csc4cc(F)ccc34)CC2)cc1 (racemic) [compound 830403]
Ki [2]: 59.9 nM

SMILES: O=C(NCC1CC1CN1CCCN(c2csc3cc(F)ccc23)CC1)c1ccc(-c2ccccc2)cc1 (racemic) [compound 830406]
Ki [2]: 27 nM

SMILES: O=S(=O)(NC[C@@H]1C[C@H]1CN1CCN(c2csc3cc(C(F)(F)F)ccc23)CC1)c1ccc(F)cc1 (racemic) [compound 831495, 4-Fluoro-N-{2R-[4-(6-trifluoromethyl-benzo[b]thiophen-3-yl)-piperazin-1-ylmenthyl]-1R-cyclopropylmethyl}-benzenesulfonamide]
Ki [3]: 35.1 nM

SMILES: CC(C)(C)c1ccc(S(=O)(=O)NCC2CC2CN2CCN(c3csc4cc(C(F)(F)F)ccc34)CC2)cc1 (racemic) [compound 831591]
Ki [3]: 93.3 nM

SMILES: COc1ccc(CNCC2CC2CN2CCN(c3csc4cc(C(F)(F)F)ccc34)CC2)cc1 (racemic) [compound 831909]
Ki [1]: 41.5 nM

SMILES: CC(C)c1ccc(CNCC2CC2CN2CCN(c3csc4cc(C(F)(F)F)ccc34)CC2)cc1 (racemic) [compound 832182]
Ki [1]: 98 nM

SMILES: FC(F)(F)c1ccc2c(N3CCN(CC4CC4CN4CCC(N5CCCC5)CC4)CC3)csc2c1 (racemic) [compound 832568]
Ki [1]: 46.2 nM

SMILES: O=C1NCCN1CCNCC1CC1CN1CCN(c2csc3cc(C(F)(F)F)ccc23)CC1 (racemic) [compound 832609]
Ki [1]: 39.6 nM

SMILES: O=C(NCC(CO)CCN1CCN(c2csc3cc(C(F)(F)F)ccc23)CC1)c1cccc(C(=O)c2ccccc2)c1 (single isomer, unassigned) [818912ES]
Ki (Table 2, read-out: D3K1): 249 nM

SMILES: O=C(NCCCCN1CCN(c2csc3cc(C(F)(F)F)ccc23)CC1)c1cccs1 [81708A]
Ki (read-out: D3K1): 4.5 nM

SMILES: O=C(NCc1sccc1CN1CCN(c2csc3cc(F)ccc23)CC1)c1ccc(-c2ccccn2)s1 [818320G]
Ki [4]: 11.2 nM

SMILES: O=C(NCc1sccc1CN1CCN(c2csc3cc(F)ccc23)CC1)c1cc2ccccc2s1 [818321G]
Ki [4]: 78.7 nM

SMILES: O=C(NCCC(CO)CN1CCN(c2csc3cc(C(F)(F)F)ccc23)CC1)c1ccc2[nH]ccc2c1 (stereo not shown) [818620ES]
Ki (Table 2, read-out: D3K1): 246 nM

SMILES: Cc1c(C(=O)NCCC(CO)CN2CCN(c3csc4cc(C(F)(F)F)ccc34)CC2)cnn1-c1ccccc1 (stereo not shown) [818634ES]
Ki (Table 2, read-out: D3K1): 305 nM

SMILES: Cc1ccc(C(=O)NCC(CO)CCN2CCN(c3csc4cc(C(F)(F)F)ccc34)CC2)cc1 (stereo not shown) [818921ES]
Ki (Table 2, read-out: D3K1): 331 nM

SMILES: O=C(NCC(CO)CCN1CCN(c2csc3cc(C(F)(F)F)ccc23)CC1)c1ccsc1 (stereo not shown) [818927ES]
Ki (Table 2, read-out: D3K1): 164 nM

SMILES: O=C(NCC(CO)CCN1CCN(c2csc3cc(C(F)(F)F)ccc23)CC1)c1ccc2ccccc2c1 (stereo not shown) [818929ES]
Ki (Table 2, read-out: D3K1): 201 nM

SMILES: O=C(NCC(CO)CCN1CCN(c2csc3cc(C(F)(F)F)ccc23)CC1)c1cc2ccccc2[nH]1 (stereo not shown) [818930ES]
Ki (Table 2, read-out: D3K1): 79.3 nM

SMILES: CC1=C(C(=O)NCC(CO)CCN2CCN(c3csc4cc(C(F)(F)F)ccc34)CC2)Cc2ccccc21 (stereo not shown) [818934ES]
Ki (Table 2, read-out: D3K1): 218 nM

SMILES: O=C(NCC(CO)CCN1CCN(c2csc3cc(C(F)(F)F)ccc23)CC1)c1n[nH]c2ccccc12 (stereo not shown) [818935ES]
Ki (Table 2, read-out: D3K1): 244 nM

SMILES: O=C(NCC(CO)CCN1CCN(c2csc3cc(C(F)(F)F)ccc23)CC1)c1ccncc1 (stereo not shown) [818940ES]
Ki (Table 2, read-out: D3K1): 307 nM

Further lines, results first:

Ki [1]: 19 nM
SMILES: CCC1CCCC1NC[C@@H]1C[C@H]1CN1CCN(c2csc3cc(C(F)(F)F)ccc23)CC1 (mixture of isomers) [compound 832278]

Ki [1]: 393 nM
SMILES: Clc1ccc(CN2CCN(CC3CC3CN3CCC(c4noc5ccsc45)CC3)CC2)cc1Cl (racemic) [832297GW]

Ki [1]: 21.8 nM
SMILES: OC1CCC(NCC2CC2CN2CCN(c3csc4cc(C(F)(F)F)ccc34)CC2)CC1 (racemic) [832390FH]

Ki [2]: 10.7 nM
SMILES: COc1ccc(C(=O)N(Cc2ccccc2)CC2CC2CN2CCCN(c3csc4cc(F)ccc34)CC2)cc1 (racemic) [compound 830394]

Ki [2]: 15.9 nM
SMILES: O=C(c1cc2ccccc2s1)N(Cc1ccccc1)CC1CC1CN1CCCN(c2csc3cc(F)ccc23)CC1 (racemic) [compound 830398]

Ki [2]: 51.9 nM
SMILES: O=C(NCC1CC1CN1CCCN(c2csc3cc(F)ccc23)CC1)c1ccc(C(F)(F)F)cc1 (racemic) [compound 830404]

Ki [2]: 1.65 nM
SMILES: COc1ccc(C(=O)NCC2CC2CN2CCCN(c3csc4cc(F)ccc34)CC2)cc1 (racemic) [compound 830405]

Ki [2]: 10.4 nM
SMILES: O=C(NCC1CC1CN1CCCN(c2csc3cc(F)ccc23)CC1)c1cc2ccccc2s1 (racemic) [compound 830407]

Ki [1]: 16 nM
SMILES: FC(F)(F)Oc1cccc(CNCC2CC2CN2CCN(c3csc4cc(C(F)(F)F)ccc34)CC2)c1 (racemic) [compound 832181]

Ki [1]: 97.5 nM
SMILES: Cc1nc(Cl)c(Cl)n1CCCNCC1CC1CN1CCN(c2csc3cc(C(F)(F)F)ccc23)CC1 (racemic) [compound 832644]

Ki [1]: 28.3 nM
SMILES: FC(F)(F)c1ccc2c(N3CCN(CC4CC4CNCCCN4CCCCC4)CC3)csc2c1 (racemic) [compound 832659]

Ki (Table 2, read-out: D3K1): 324 nM
SMILES: O=C(NCCC(CO)CN1CCN(c2csc3cc(C(F)(F)F)ccc23)CC1)c1ccc2ccccc2c1 (stereo not shown) [818619ES]

Ki (Table 2, read-out: D3K1): 319 nM
SMILES: O=C(NCC(CO)CCN1CCN(c2csc3cc(C(F)(F)F)ccc23)CC1)c1c(F)cc(F)cc1F (stereo not shown) [818923ES]

Ki (Table 2, read-out: D3K1): 318 nM
SMILES: O=C(NCC(CO)CCN1CCN(c2csc3cc(C(F)(F)F)ccc23)CC1)c1ccco1 (stereo not shown) [818924ES]

Ki (Table 2, read-out: D3K1): 293 nM
SMILES: O=C(NCC(CO)CCN1CCN(c2csc3cc(C(F)(F)F)ccc23)CC1)c1ccoc1 (stereo not shown) [818925ES]

Ki (Table 2, read-out: D3K1): 206 nM
SMILES: O=C(NCC(CO)CCN1CCN(c2csc3cc(C(F)(F)F)ccc23)CC1)c1cccs1 (stereo not shown) [818926ES]

Ki (Table 2, read-out: D3K1): 158 nM
SMILES: O=C(NCC(CO)CCN1CCN(c2csc3cc(C(F)(F)F)ccc23)CC1)c1cn[nH]c1 (stereo not shown) [818928ES]

Ki (Table 2, read-out: D3K1): 97.2 nM
SMILES: O=C(NCC(CO)CCN1CCN(c2csc3cc(C(F)(F)F)ccc23)CC1)c1ccc2[nH]ccc2c1 (stereo not shown) [818931ES]

Ki (Table 2, read-out: D3K1): 207 nM
SMILES: O=C(NCC(CO)CCN1CCN(c2csc3cc(C(F)(F)F)ccc23)CC1)c1cc2ccccc2o1 (stereo not shown) [818932ES]

Ki (Table 2, read-out: D3K1): 141 nM
SMILES: O=C(NCC(CO)CCN1CCN(c2csc3cc(C(F)(F)F)ccc23)CC1)c1ccc2ncccc2c1 (stereo not shown) [818938ES]
